Here are results for 2 compounds from ChEMBL document CHEMBL1130928 (Bioorg Med Chem Lett, 1998).

pIC50: −log10 of the molar value.

Assay [1] addresses Human immunodeficiency virus type 1 reverse transcriptase (Human immunodeficiency virus 1, UniProt Q72547, Y181C). Nature of the assay: Compound was tested for inhibitory activity against HIV-1 mutant type reverse transcriptase (Y181C).
Assay [2] has as its target Human immunodeficiency virus type 1 reverse transcriptase (Human immunodeficiency virus 1, UniProt Q72547, P236L). Description: Compound was tested for inhibitory activity against HIV-1 mutant type reverse transcriptase (P236L).
The target of assay [3] is Human immunodeficiency virus type 1 reverse transcriptase (Human immunodeficiency virus 1, UniProt Q72547, K103N). Nature of the assay: Compound was tested for inhibitory activity against HIV-1 mutant type reverse transcriptase (K103N).
Assay [4] concerns the target T1, Human immunodeficiency virus type 1 reverse transcriptase (Human immunodeficiency virus 1, UniProt Q72547). Nature of the assay: Compound was tested for inhibitory activity against HIV-1 mutant type reverse transcriptase ([…]).
Assay [5] deals with T1, Human immunodeficiency virus type 1 reverse transcriptase. Nature of the assay: Compound was tested for inhibitory activity against HIV-1 wild type reverse transcriptase.

Usually pIC50 stands for −log10 of the IC50, conventionally taken in molar units. Read a low pIC50 as a large IC50. On to `CCN1c2ncccc2C=Cc2cccnc21`, for which the negative logarithm of the IC50 (pIC50) is 5.60 in assay [1]; 8.00 in assay [2]; 5.82 in assay [3]; 6.64 in assay [4]; 7.40 in assay [5].
For `C1=Cc2cccnc2N(C2CC2)c2ncccc21` the same measures were 6.02, 8.00, 6.20, 6.82 and 7.70.
